Key:
mouse calvaria = assay: Bone resorption assay, organ culture with 45Ca-prelabeled mouse calvaria (PTH-stimulated 45Ca release); format: cell-based; settings: for Resorption / PTH-stimulated 45Ca release, result in words / Resorption, result in words: present only during preincubation; for Resorption / PTH-stimulated 45Ca release, result in words: then washed away; for Bone resorption (45Ca release), result in words: in vitro mouse calvaria, compound present during culture
Protocol: This example used the organ culture technique with mouse calvaria.
The organ culture technique was used with ^45Ca-prelabeled mouse calvaria. The method has been described by Lerner (1987) and Ljunggren et al. (1991). Newborn mice were injected subcutaneously with ^45CaCl (1.5 μCi/animal). After four days their calvaria were dissected, split into quarters and preincubated in phenol red free CMRL 1066 medium supplemented with 0.1% bovine serum albumin and 50 μg/ml gentamicin for 24 hours at 37° C. in a humidified atmosphere of 5% CO2 in air in the presence of indomethacin (1 μmol/l) and 10 nmol/l bovine parathyroid hormone (PTH). After washing the bone pieces, the medium was changed and cultures incubated for three more days in the same medium but without indomethacin in the presence or absence of estramustine phosphate or clodronate. Resorption was measured by assaying the ^45Ca liberated into the medium using a standard technique for liquid scintillation counting. Total ^45Ca was determined after hydrolysing the calvaria in 6 mol/l HCI overnight. Bone resorption was studied in various concentrations of estramustine phosphate and the effect of estramusine phosphate present only during the preincubation stage was checked in order to study its cytotoxcity.
Results are expressed as mean±SEM, n=5 or 10. Inhibition percentage was calculated as follows
Inhibition %=^45Ca released control bones (%)−^45Ca released from sample bones (%) ^45Ca released control bones*100

[1] = Mutual bioavailability of estramustine phosphate and clodronate: serum AUC0-24h and Cmax in patients; settings: for AUC0-24h and Cmax, drug alone versus concomitantly with the other drug / Bioavailability, effect of adding the other drug: patients, clodronate 3200 mg and estramustine phosphate 560 mg daily; for AUC0-24h Estracyt: serum, mean
Protocol: (§1) The first group of six patients were given 3200 mg daily of clodronate only for four days. On the fifth day the AUC0-24h for the drug was calculated from serum concentrations of repeated blood samples. On the sixth day, 560 mg estramustine phosphate was add per oral to the clodronate treatment for the following four days. On day ten, the AUC0-24h for both drugs was calculated.
(§2) The second group of six patients were give orally 560 mg daily of estramustine phosphate only for four days. On the fifth day the AUC0-24h for the drug was calculated from serum concentrations of repeated blood samples. On the sixth day, 3200 mg clodronate was added to the estramustine phosphate treatment for the following four days. On day ten, the AUC0-24h for both drugs was calculated. The clodronate was provided as 400 mg capsules, and the estramustine phosphate used was estracyt in 140 mg capsules.
(§3) The method used in the analysis of the serum estramustine phosphate concentrations measures estrone and is insensitive to any metabolites. The estradiol-related metabolites (estramustine and estradiol) were not analyized in connection with the bioanalysis.

clinical = settings: male, human, serum, oral, 3200 mg
Protocol: as §1, §2, §3

[2] = Experiment 2 (compound present only during preincubation), 100 μmol/l, mean±SEM

O=P(O)(O)C(Cl)(Cl)P(=O)(O)O [Clodronate, Disodium clodronate]
inhibition at 0.1 µM (mouse calvaria; Mus musculus, Experiment 1, 0.1 μmol/l, mean±SEM, n=5 or 10): 0.9 ± 1.2% | inhibition at 1 µM (mouse calvaria; Mus musculus, Experiment 1, 1 μmol/l, mean±SEM, n=5 or 10): 3.5 ± 4.2% | inhibition at 10 µM (mouse calvaria; Mus musculus, Experiment 1, 10 μmol/l, mean±SEM, n=5 or 10): 28.3 ± 3.8% | inhibition at 100 µM (mouse calvaria; Mus musculus, Experiment 1, 100 μmol/l, mean±SEM, n=5 or 10): 51.4 ± 1.9% | inhibition at 1000 µM (mouse calvaria; Mus musculus, Experiment 1, 1000 μmol/l (precipitate noted for estramustine phosphate), mean±SEM): 25.7 ± 6.6% | inhibition at 100 µM (mouse calvaria; Mus musculus, Experiment 2 (compound present only during preincubation), 100 μmol/l, mean±SEM): 55.9 ± 0.5% | Resorption / PTH-stimulated 45Ca release, result in words (mouse calvaria): also inhibits resorption | AUC0-24h and Cmax, drug alone versus concomitantly with the other drug [1]: did not differ significantly | Bioavailability, effect of adding the other drug [1]: no effect | AUC(0-t) (clinical): 19300 ng·h/mL | Cmax (clinical): 1580 ng/mL

C[C@]12CC[C@@H]3c4ccc(OC(=O)N(CCCl)CCCl)cc4CC[C@H]3[C@@H]1CC[C@@H]2OP(=O)([O-])[O-].[Na+].[Na+] [Estramustine phosphate, Estramustine phosphate sodium]
45Ca-release (%) (mouse calvaria; Experiment 1, 0.01 μmol/l, mean±SEM): 51.5 ± 3.0% | Inhibition % (mouse calvaria; Experiment 1, 0.01 μmol/l, mean±SEM, n=5 or 10): 5.5 ± 5.5% | 45Ca-release (%) (mouse calvaria; Experiment 1, 0.1 μmol/l, mean±SEM): 50.6 ± 1.6% | Inhibition % (mouse calvaria; Experiment 1, 0.1 μmol/l, mean±SEM, n=5 or 10): 7.2 ± 2.9% | 45Ca-release (%) (mouse calvaria; Experiment 1, 1 μmol/l, mean±SEM): 55.4 ± 2.9% | Inhibition % (mouse calvaria; Experiment 1, 1 μmol/l, mean±SEM, n=5 or 10): 2.0 ± 5.4% | 45Ca-release (%) (mouse calvaria; Experiment 1, 10 μmol/l, mean±SEM): 34.7 ± 3.1% | Inhibition % (mouse calvaria; Experiment 1, 10 μmol/l, mean±SEM, n=5 or 10): 34.7 ± 3.1% | 45Ca-release (%) (mouse calvaria; Experiment 1, 100 μmol/l, mean±SEM): 16.7 ± 0.2% | Inhibition % (mouse calvaria; Experiment 1, 100 μmol/l, mean±SEM, n=5 or 10): 65.3 ± 2.3% | Inhibition % (mouse calvaria; Experiment 1, 1000 μmol/l (precipitate noted for estramustine phosphate), mean±SEM): 55.9 ± 0.6% | 45Ca-release (%) (mouse calvaria; Experiment 1, 1000 μmol/l (precipitate), mean±SEM): 24.0 ± 2.2% | Inhibition % (mouse calvaria; Experiment 2 (compound present only during preincubation), 10 μmol/l, mean±SEM): −17.9 ± 8.7% | 45Ca-release (%) (mouse calvaria; [2]): 11.9 ± 0.6% | Inhibition % (mouse calvaria; [2]): 70.4 ± 1.4% | Bone resorption (45Ca release), result in words (mouse calvaria): inhibited bone resorption in this in vitro model concentration-dependently and about as effectively as clodronate | Bone resorption (45Ca release), result in words (mouse calvaria; listed as estramustine phosphate sodium): dose-dependently inhibited | Resorption / PTH-stimulated 45Ca release, result in words (mouse calvaria): PTH could not stimulate ^45Ca release from bones | Resorption, result in words (mouse calvaria; 10 μmol/l): slightly increased | Resorption, result in words (mouse calvaria; 100 μmol/l): strongly inhibited | AUC0-24h Estracyt ([1]; Estracyt 560 mg daily concomitantly with Clodronate 3200 mg): 84.74 µM·h | AUC0-24h Estracyt ([1]; Estracyt only, 560 mg daily orally): 47.38 µM·h | AUC0-24h and Cmax, drug alone versus concomitantly with the other drug [1]: differed statistically | Bioavailability, effect of adding the other drug [1]: almost doubled
